According to article PMC6367362, “MD001, a Novel Peroxisome Proliferator-activated Receptor α/γ Agonist, Improves Glucose and Lipid Metabolism” (Scientific Reports, 2019):

Columns and labels:
[1] = system: differentiated 3T3-L1 adipocytes; assay: In vitro glucose consumption assay, 3T3-L1 adipocytes; format: cell-based, mouse; details: 10, 50 μM, 24 h
Description: (§1) Figure 3 MD001 promotes glucose consumption by induction of GLUT expression. HepG2 (A), differentiated 3T3-L1 adipocytes (B), and differentiated C2C12 myotubes (C) were treated with vehicle, MD001 (10, 50 μM), or rosiglitazone (rosi, 10 μM) for 24 h; glucose consumption was examined as described in the Methods section. Cells were harvested for total RNA isolation. Relative expression levels of GLUT2 (D) and GLUT4 (E,F) were quantitated using qRT-PCR. *, **, and ^† vs. vehicle. Data represent the mean ± SD of three independent experiments. *P < 0.05, **P < 0.01, and ^†P < 0.01.
(§2) The glucose consumption assay was performed as previously described. Briefly, cells were treated with MD001 or rosiglitazone […]. The conditioned medium from cultured cells was harvested and assayed for glucose content using a Glucose Colorimetric Assay Kit II (BioVision Inc., Milpitas, CA, USA).

[2] = system: differentiated C2C12 myotubes; assay: In vitro glucose consumption assay, C2C12 myotubes; format: cell-based, mouse; details: 10, 50 μM, 24 h
Description: as §1, §2

[3] = system: differentiated C2C12 myotubes; assay: qRT-PCR gene expression in differentiated C2C12 myotubes; format: cell-based, mouse; details: 24 h
Description: as §1
(§3) Figure 4 MD001 stimulates fatty acid oxidation in vitro. […] Relative gene expressions were analysed by qRT-PCR. HepG2 (D), differentiated 3T3-L1 adipocytes (E), and differentiated C2C12 myotubes (F) were treated with vehicle, MD001 (10 μM), or WY14643 (WY) (10 μM) for 24 h and the fatty acid oxidation rate was analysed as described in the Methods section. […]
(§4) Total RNA was isolated using an RNeasy kit (Qiagen, Germantown, MD, USA) according to the manufacturer’s instructions. Complementary DNA (cDNA) was synthesised by reverse transcription using 0.5 μg of total RNA, and quantitative RT-PCR was performed using Power SYBR Green PCR Master Mix (ABI Thermo Fisher Scientific, Foster City, CA, USA) on a StepOne 48-well real-time PCR system (ABI/Thermo Fisher Scientific). […]

[4] = system: differentiated 3T3-L1 adipocytes; assay: qRT-PCR gene expression in differentiated 3T3-L1 adipocytes; format: cell-based, mouse; details: 24 h
Description: as §1, §3, §4

db/db mice = assay: Oral once-daily administration to diabetic db/db mice
Description: (A) Changes in blood glucose levels was monitored in db/db mice administered once a day with vehicle, WY14643 (WY, 20 mg/kg), rosiglitazone (rosi, 20 mg/kg), or MD001 (n = 5–6 per group) as indicated. […] (D–M) The change in various blood metabolites was examined in db/db mice administered once a day with vehicle, WY14643 (WY), rosiglitazone (rosi), or MD001 (n = 5–6 per group). *, **, and ^#, vs. vehicle; ^†, vs. vehicle, MD001(5 mg/kg), and MD001(20 mg/kg). The data represent the mean ± S.D. *P < 0.05, **P < 0.01, ^#P < 0.001, and ^†P < 0.01.
Six-week-old C57BLKS/J-Lepr^db/Lepr^db or wild type C57BL/6J male mice were purchased from Orient Bio, Inc. (Seongnam, Korea) and acclimatised for one week. Mice were randomly grouped and orally administered with vehicle, WY14643 (20 mg/kg), rosiglitazone (20 mg/kg), or MD001 (5 mg/kg or 20 mg/kg) once a day for two months. […] Blood glucose levels were measured at the indicated time point using an OneTouch Ultra Blood Glucose Monitoring System (LifeScan, Inc., Milpitas, CA, USA).
Livers and blood samples were collected from mice in each group.
Tissues specimens including liver, perigonadal adipose tissue, skeletal muscle, spleen, kidney, and heart, were collected from mice in each group, fixed in 10% formalin, and embedded into paraffin. Tissue sections (5 μm) were stained with haematoxylin and eosin (H&E).

[5] = db/db mice, 60 days, rosiglitazone 20 mg/kg, MD001 5 and 20 mg/kg
[6] = db/db mice, once a day for 60 days, rosiglitazone 20 mg/kg
[7] = db/db mice, 20 mg/kg, 60 days, qRT-PCR
[8] = db/db mice, 20 mg/kg, qRT-PCR and immunoblot

Cc1c(O)cc(O)c2c(-c3ccccc3)c(C(=O)/C=C/c3ccccc3)c(=O)oc12 [MD001]
glucose consumption [1]: significantly increased glucose consumption in a dose-dependent manner | glucose consumption [2]: significantly increased glucose consumption in a dose-dependent manner | expression levels of ACOX and CPT ([3]; 10 μM): significantly increased | expression of glucose transporter GLUT4 ([3]; 10, 50 μM): significantly increased | expression levels of ACOX and CPT ([4]; 10 μM): significantly increased | expression of glucose transporter GLUT4 ([4]; 10, 50 μM): significantly increased | blood glucose levels in intraperitoneal insulin tolerance test (IPITT) (db/db mice; db/db mice): lowered | body weight gain (db/db mice; db/db mice, 60 days, compared to vehicle): no induction of body weight gain | RBC count (db/db mice; [5]): did not decrease | haematocrit (HCT) level (db/db mice; [5]): did not decrease | haemoglobin (Hb) level (db/db mice; [5]): did not decrease | number of large fat cells (>150 μm in diameter) (db/db mice; db/db mice, adipose tissue H&E): significantly reduced | number of medium fat cells (100~150 μm in diameter) (db/db mice; db/db mice, adipose tissue H&E): significantly increased | number of small fat cells (<100 μm in diameter) (db/db mice; db/db mice, adipose tissue H&E): significantly increased | increase in fat mass as compared to the vehicle control (db/db mice; [6]): no increase | increase in liver weight as compared to the vehicle control (db/db mice; [6]): no increase | HDL levels (db/db mice; db/db mice, oral once a day): increased | LDL levels (db/db mice; db/db mice, oral once a day): significantly decreased | blood FFA (db/db mice; db/db mice, oral once a day): significantly decreased | blood TG (db/db mice; db/db mice, oral once a day): significantly decreased | blood alanine aminotransferase (ALT) levels (db/db mice; db/db mice, oral once a day): significantly reduced | blood aspartate aminotransferase (AST) levels (db/db mice; db/db mice, oral once a day): significantly reduced | blood insulin (db/db mice; db/db mice, oral once a day): significantly decreased | serum adiponectin (Acrp30) levels (db/db mice; db/db mice, oral once a day): increased | total cholesterol levels (db/db mice; db/db mice, oral once a day): did not affect | blood glucose levels (db/db mice; db/db mice, oral once a day, MD001 5 or 20 mg/kg, WY14643 20 mg/kg, rosiglitazone 20 mg/kg): significantly decreased blood glucose levels in a dose-dependent manner | hepatic FFA (db/db mice; db/db mice, 20 mg/kg): significantly reduced | hepatic TG (db/db mice; db/db mice, 20 mg/kg): significantly reduced | hepatic steatosis (H&E staining of liver) (db/db mice; db/db mice, 20 mg/kg): reduction in size and number of hepatic lipid droplets in a dose-dependent manner | diameter of the glomerular capsule (db/db mice; db/db mice, 20 mg/kg once a day for 60 days): significantly reduced | expression of PEPCK and G6Pase in the liver (db/db mice; db/db mice, 20 mg/kg once a day for 60 days, qRT-PCR): decreased | H&E staining of skeletal muscle (db/db mice; db/db mice, 20 mg/kg, 60 days, compared among vehicle and treated groups): no differences | expression of inflammatory genes TNFα, MCP-1 and macrophage-marker genes CD11b, CD11c (db/db mice; [7]): decreased | liver expression of hepatic lipogenesis genes ADD1, ACC, FAS (db/db mice; [7]): decreased | skeletal muscle expression of ACOX, CPT, MLYCD, GLUT4, and LPL (db/db mice; [7]): significantly increased | adipose tissue expression of ACOX, CPT, GLUT4, and CD36 (db/db mice; [8]): significantly increased | liver expression of target genes of PPARα (ACOX, CPT, MLYCD) and PPARγ (GLUT2, GK, CD36) (db/db mice; [8]): significantly increased | blood glucose levels in oral glucose tolerance test (OGTT) (db/db mice; db/db mice, glucose 1 g/kg, eight weeks after drug administration): significantly decreased | food ingestion (db/db mice; wild type C57BL/6J and db/db mice, 3-day food intake): without changes in food ingestion
